One assay deals with Pancreas BXPC-3. Briefly: Sulforhodamine B cancer cell growth inhibition. In kind it is cell-based. The following applies: Homo sapiens, 48 h, read-out: GI50 (inhibition of 50% of cell growth). The method, then: (§1) An investigation TMPN's in vitro antineoplastic activity was also conducted. This investigation included an analysis of both cell growth, and of the effects of TMPN upon tubulin. Inhibition of cancer cell growth was assessed using the Sulforhodamine B assay as previously described. Briefly, cells in 5% fetal calf serum/RPMI-1640 were inoculated into 96 well plates, incubated 24 h and 10-fold dilutions of TMPN added. After a 48 h incubation, plates were fixed with trichloroacetic acid, washed, stained with Sulforhodamine B and read with an automated microtiter plate reader.

The next assay has as its system Lung-NSC NCI-H460. Briefly: Sulforhodamine B cancer cell growth inhibition. It is filed as cell-based. Particulars: Homo sapiens, 48 h, read-out: GI50 (inhibition of 50% of cell growth). The method, then:
as §1

The subject of another assay is Prostate DU-145. Briefly: Sulforhodamine B cancer cell growth inhibition. It is filed as cell-based. Particulars: Homo sapiens, 48 h, read-out: GI50 (inhibition of 50% of cell growth). The method, then:
as §1

The subject of a further assay is Colon KM20L2. Briefly: Sulforhodamine B cancer cell growth inhibition. In kind it is cell-based. Particulars: Homo sapiens, KM-20L2, 48 h, read-out: GI50 (inhibition of 50% of cell growth). The method, then:
as §1

Assay [1] concerns C. neoformans (ATCC 90112). Briefly: Frequency of occurrence of spontaneous mutants. In kind it is cell-based, Cryptococcus neoformans. Particulars: four times the broth macrodilution MIC. On the procedure:
Determination of the frequency of occurrence of spontaneous mutants was performed as previously described. Overnight cultures of C neoformans (ATCC 90112), C. albicans (ATCC 90028) and Trichosporon inkin (ATCC 18020) were diluted to an OD530 nm=0.3. 0.1 ml of each preparation was spread onto SDA plates containing four or eight times the broth macrodilution MIC of TMPN. The starting inoculum for each organism was also diluted and plated onto drug-free SDA plates for determination of cfu/ml. After a 48 h incubation at the appropriate temperature (see Fungal Strains section above), the number of colonies on drug-supplemented SDA was counted. The frequency of occurrence of spontaneous mutants was calculated by dividing the number of colonies on drug-containing plates by the number of colonies in the inoculum. When no colonies were visualized on drug-containing plates, the calculation was (<) 1 colony divided by the number of colonies in the inoculum.

The subject of a further assay is C. tropicalis (9). Nature of the assay: Broth macrodilution MIC/MFC. In kind it is cell-based, Candida tropicalis. On the procedure: TMPN was screened against yeasts by the broth macrodilution assay according to the NCCLS [7]. Yeasts were suspended and diluted as recommended to yield final inocula ranging from 0.5-2.5×10^3 cfu/ml. Tests were performed in sterile 12 by 75 mm plastic tubes containing two-fold dilutions of TMPN in 0.165 M morpholinepropanesulfonic acid buffered RPMI 1640 medium (pH 7.0). One tube was again left drug free (but contained an equivalent volume of DMSO) for a turbidity control. Tubes were incubated without agitation at the appropriate temperature (see Fungal Strains section above). MICs were determined after 72 h for Cryptococcus and after 48 h for other yeast genera. The MIC was defined as the lowest concentration of TMPN that inhibited all visible growth of the test organism (optically clear).
(§2) Minimum fungicidal concentrations (MFCs) were determined by subculturing 0.1 ml from each tube with no visible growth in the MIC broth macrodilution series onto the appropriate drug-free plates (see Fungal Strains section above).

Assay [2] concerns Paecilomyces lilacinus (1). Nature of the assay: Broth macrodilution MIC/MFC, filamentous fungi. In kind it is cell-based. On the procedure:
(§3) Susceptibility testing of filamentous fungi was also conducted. Broth macrodilution susceptibility testing of P. lilacinus, Rhizopus spp. and Aspergillus spp. was performed in accordance with a proposed standardized procedure with slight modification. To induce conidium and sporangiospore formation, fungi were grown on PDA slants at 35° C. for 6 days (P. lilacinus, Rhizopus spp., all Aspergillus species except A. nidulans) or 3 days (A. nidulans). Fungal slants were covered with sterile 0.85% NaCl (P. lilacinus, Rhizopus spp., all Aspergillus species except A. nidulans) or 0.05% Tween 80 (A. nidulans), and suspensions were made by gently probing the colonies with the tip of a sterile Pasteur pipette. The resulting mixture of hyphal fragments and conidia or sporangiospores was withdrawn and transferred to a sterile clear microcentrifuge tube, and heavy particles were allowed to settle for 10 min. The upper homogenous suspension was transferred to a sterile microcentrifuge tube, vortexed for 15 s, adjusted spectrophotometrically, and diluted in sterile 0.165 M MOPS-buffered RPMI medium, pH 7.0, to yield final inocula ranging from 0.5-2.5×10^3 cfu/ml. Susceptibility to TMPN was then determined by broth macrodilution as described above for yeast isolates. MICs were read after 48 h The MIC was defined as the lowest concentration of TMPN that inhibited all visible growth of the test organism (optically clear).
as §2

The subject of assay [3] is Rhizopus oligosporus ATCC 22959. Briefly: Broth macrodilution MIC/MFC, filamentous fungi. It is filed as cell-based. On the procedure:
as §3, §2

Converted amounts (≈) assume the structure as drawn.

In the case of `COc1cc(C=C[N+](=O)[O-])cc(OC)c1OC` [TMPN, 1-(3′,4′,5′-trimethoxyphenyl)-2-nitro-ethylene], the concentration for 50% growth inhibition (GI50) (commonly the concentration at which growth is held to half of that of the control) was 1.6 µg/mL (≈ 6.69 µM) with Pancreas BXPC-3, 1.4 µg/mL (≈ 5.85 µM) in the assay with Lung-NSC NCI-H460, 1.1 µg/mL (≈ 4.6 µM) with Prostate DU-145 and 1.4 µg/mL (≈ 5.85 µM) with Colon KM20L2. Moreover, the “frequency of occurrence of single-step resistant mutants” value in assay [1] is recorded as ≤ 10^−6. Further, the “MIC Range” value against C. tropicalis (9) was 32 to 64 µg/mL; in assay [2], 32 µg/mL (≈ 134 µM); in assay [3], 8 µg/mL (≈ 33.4 µM). Moreover, the “MFC Range” value in assay [2] is 64 µg/mL (≈ 268 µM); in assay [3], greater than 64 µg/mL.

Values taken from US20050014849A1, “Antifungal phenylethylene” (priority 2001, published 2005).
